Assay [1] relates to iRhom2. As to the kind of experiment: iRhom2 expression in ex vivo cultures of RA synovial macrophages. It is filed as cell-based, human. Particulars: RA synovial macrophages incubated overnight ± etanercept, n=8. How it is done: FIG. 2. Production of TNFα and other pro-inflammatory molecules is enhanced by TNFα shedding. (A) Quantification of mRNA levels of the indicated genes by qPCR following 30 min pre-treatment with 10 μg/ml etanercept and stimulation with C5a (representative of 3 experiments). (B) qPCR of iRhom2 mRNA in human monocytes treated for the indicated time periods with hTNFα (representative of 4 experiments). (C) Relative iRhom2 expression in RA synovial macrophages compared to macrophages from normal control patients, n=7 for control, and n=8 for RA patients (Nonparametric Mann-Whitney U test) (Gordon et al., 2012). (D) iRhom2 expression in synovial macrophages from RA patients following incubation overnight±etanercept, shown as percent of expression in freshly isolated cells, n=8. […] (F) Decreased TNFα release from C5a, IC and IC+C5a-stimulated cells treated with iR2 siRNA or TACE siRNA compared to untreated controls (representative of 3 independent experiments, mean±s.d. of samples stimulated in duplicates). *: p<0.05.
This, in turn, would also reduce the production of TNFα-dependent cytokines and of iRhom2, a crucial positive regulator of TACE (Adrain et al., 2012; McIlwain et al., 2012; Siggs et al., 2012).

Assay [2] has as its system human monocytes. As to the kind of experiment: C5a-stimulated oxidative burst (ROS release) in human monocytes. Particulars: C5a in presence or absence of Marimastat, ROS by FACS (DHR). The format is cell-based. How it is done:
(§1) FIG. 5. (A) TACE-mediated cleavage of CD62L on the cell surface of freshly isolated human neutrophils (representative of 2 experiments). Surface expression of CD62L was assessed by flow cytometry following stimulation with 1 μg/mL of C5a or 25 ng/mL PMA for 20 min in the presence or absence of Marimastat (MM). (B) Quantification of total sheep red blood cells phagocytosed by wild type or Tace−/− bone marrow macrophages. Opsonized sheep red blood cells were stained with CFSE and total fluorescence intensity (TFI) was measured by flow cytometry, n=3, mean+/−SEM; * indicates p>0.05. (C) Release of reactive oxygen species by human monocytes when stimulated with C5a in the presence or absence of Marimastat. ROS was quantified by FACS by measuring the mean intensity of the ROS-reactive dye DHR. […] The Fc domains of pathogenic IgG initiate tissue damage by binding FcγR on effector cells and by activating complement, and FcγRs are critical for the pathogenesis of inflammatory arthritis in the K/B×N serum model (Ji et al., 2002a).

Assay [3] deals with macrophages. As to the kind of experiment: Phagocytosis of IgG-opsonized red blood cells by macrophages. It is filed as cell-based. Particulars: inhibition of TACE with MM. How it is done: as §1, with “(B) Quantification of total sheep red blood cells phagocytosed by wild type or Tace−/− bone marrow macrophages.” left out

Turning to etanercept, the iRhom2 expression entry in assay [1] is on record as “substantially reduced”.

With `CNC(=O)[C@@H](NC(=O)[C@H](CC(C)C)[C@H](O)C(=O)NO)C(C)(C)C` [MM, Marimastat], the C5a-stimulated oxidative burst result in assay [2] is recorded as “did not alter”. Moreover, the “opsonization (internalization of IgG-opsonized red blood cells)” value in assay [3] is listed as “did not alter”.
